Source: ChEMBL document CHEMBL1759879, “A new quinoline derivative with cytotoxic activity from Streptomyces sp. neau50” (Bioorg Med Chem Lett, 2011)
≈ marks a conversion by molar mass, not a printed value. Calls of active or inactive are those of the source. No cut-off for these calls is given here.

Legend:
Candida albicans = assay: Antimicrobial activity against Candida albicans at 10 uM by agar diffusion method; format: functional, organism-based
A549 = assay: Cytotoxicity against human A549 cells after 72 hrs colorimetric assay; format: functional, cell-based; conditions: A549, 72 h
[1] = system: Staphylococcus epidermidis; assay: Antimicrobial activity against Staphylococcus epidermidis at 10 uM by agar diffusion method; format: functional, organism-based

COC(=O)c1cc(C)nc2c(CCC(C)(C)OC)cccc12
Activity (Candida albicans): inactive | IC50 (A549): 29.3 µg/mL (≈ 97.2 µM) | Activity [1]: inactive
